Experiments:
Wee1 kinase domain = biological target: T1, Wee1 kinase domain (Homo sapiens, UniProt P30291); assay: Wee1 Kinase Biochemical Assay (ADP-Glo); details: class symbols; 1 nM Wee1 enzyme, 15 uM ATP, 4 hours at 25° C.
T1 construct: Wee1 kinase domain was purchased from Carna (catalog #05-177); purchased Carna 05-177
Procedure, shortened: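 Compounds tested against 1 nM Wee1 kinase domain in Tris buffer containing 20 mM MgCl2, BSA and 2 mM DTT, with 15 uM ATP and poly(Lys,Tyr) substrate for 4 h at 25 °C. Luminescent ADP detection gave percent inhibition, normalized to DMSO and saturating inhibitor.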

[1] = tested on: phosphorylation of Cdc2 Y15 (Wee1 substrate) in A427 cells; assay: Phosphorylated Cdc2 MSD Electrochemiluminescence Assay; type: cell-based; details: Homo sapiens, A-427, class symbols, read-out: A427 pCDC2 MSD IC50
Procedure, shortened: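 Read-out: percent residual phospho-Cdc2 Y15 relative to DMSO and positive-control Wee1 inhibitor, measured by MSD electrochemiluminescence capture/detection antibody assay in cell lysates. A427 cells received duplicate 3-fold compound dilution series 20 h post-seeding, with 6 h total incubation at 37 °C.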

T1 sequence (P30291 299-569 limits assumed): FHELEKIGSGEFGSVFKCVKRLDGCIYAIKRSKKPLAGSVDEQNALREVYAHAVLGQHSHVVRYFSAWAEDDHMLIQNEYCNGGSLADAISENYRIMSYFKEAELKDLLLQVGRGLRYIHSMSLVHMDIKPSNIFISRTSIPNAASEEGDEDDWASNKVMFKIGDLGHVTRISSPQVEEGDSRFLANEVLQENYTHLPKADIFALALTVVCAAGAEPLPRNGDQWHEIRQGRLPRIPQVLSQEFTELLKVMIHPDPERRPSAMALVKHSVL

Molecule `CN1C[C@@H]2C[C@H]1CN2c1ccc(Nc2ncc3c(n2)N(c2cccc(C(C)(C)O)n2)[C@@H]2CC(C)(C)OC[C@]32C)cc1` (single isomer, unassigned) [Example 416] has an IC50 (Wee1 kinase domain) of less than 10 nM and an IC50 [1] of 100 to 1000 nM.
For `CC1(C)C[C@@H]2N(c3cccc(C(C)(C)O)n3)c3nc(Nc4ccc(O[C@@H]5CCNC5)cc4)ncc3[C@]2(C)CO1` (single isomer, unassigned) [Example 417], the IC50 (Wee1 kinase domain) was less than 10 nM and the IC50 [1] was less than 100 nM.
For `CC1(C)C[C@H]2N(c3cccc(C(C)(C)O)n3)c3nc(Nc4ccc(O[C@H]5CCNC5)cc4)ncc3[C@@]2(C)CO1` (single isomer, unassigned) [Example 419], the IC50 (Wee1 kinase domain) was less than 10 nM and the IC50 [1] was less than 100 nM.
Molecule `CN1CC[C@H](Oc2ccc(Nc3ncc4c(n3)N(c3cccc(C(C)(C)O)n3)[C@@H]3CC(C)(C)OC[C@]43C)cc2)C1` (single isomer, unassigned) [Example 421] has an IC50 (Wee1 kinase domain) of less than 10 nM and an IC50 [1] of less than 100 nM.
`Cc1cc(Nc2ncc3c(n2)N(c2cccc(C(C)(C)O)n2)[C@@H]2CC(C)(C)OC[C@]32C)ccc1N1C[C@H]2C[C@@H]1CN2C` (single isomer, unassigned) [Example 425] gave an IC50 (Wee1 kinase domain) of less than 10 nM and an IC50 [1] of 100 to 1000 nM.
In the case of `CN1C[C@H]2C[C@@H]1CN2c1ccc(Nc2ncc3c(n2)N(c2cccc(C(C)(C)O)n2)[C@@H]2CC(C)(C)OC[C@]32C)cc1F` (single isomer, unassigned) [Example 427], the IC50 (Wee1 kinase domain) is reported as less than 10 nM and the IC50 [1] is reported as 100 to 1000 nM.
In the case of `Cc1cc(Nc2ncc3c(n2)N(c2cccc(C(C)(C)O)n2)[C@@H]2CC(C)(C)OC[C@]32C)ccc1N1C[C@@H]2C[C@H]1CN2C` (single isomer, unassigned) [Example 429], the IC50 (Wee1 kinase domain) is reported as less than 10 nM and the IC50 [1] is reported as 100 to 1000 nM.
Work on `CN1C[C@@H]2C[C@H]1CN2c1ccc(Nc2ncc3c(n2)N(c2cccc(C(C)(C)O)n2)[C@@H]2CC(C)(C)OC[C@]32C)cc1F` (single isomer, unassigned) [Example 431] yielded an IC50 (Wee1 kinase domain) of less than 10 nM and an IC50 [1] of 100 to 1000 nM.
In the case of `CN1C[C@H]2C[C@@H]1CN2c1ccc(Nc2ncc3c(n2)N(c2cccc(C(C)(C)O)n2)[C@@H]2CC(C)(C)OC[C@]32C)cc1Cl` (single isomer, unassigned) [Example 433], the IC50 (Wee1 kinase domain) is reported as less than 10 nM and the IC50 [1] is reported as 100 to 1000 nM.
`CN1C[C@@H]2C[C@H]1CN2c1ccc(Nc2ncc3c(n2)N(c2cccc(C(C)(C)O)n2)[C@@H]2CC(C)(C)OC[C@]32C)cc1Cl` (single isomer, unassigned) [Example 435] gave an IC50 (Wee1 kinase domain) of less than 10 nM and an IC50 [1] of 100 to 1000 nM.
`CN1CC[C@@H]2CN(c3ccc(Nc4ncc5c(n4)N(c4cccc(C(C)(C)O)n4)[C@@H]4CC(C)(C)OC[C@]54C)cc3)C[C@@H]21` (single isomer, unassigned) [Example 437] showed an IC50 (Wee1 kinase domain) of less than 10 nM and an IC50 [1] of 100 to 1000 nM.
In the case of `CN1CC[C@H]2CN(c3ccc(Nc4ncc5c(n4)N(c4cccc(C(C)(C)O)n4)[C@@H]4CC(C)(C)OC[C@]54C)cc3)C[C@H]21` (single isomer, unassigned) [Example 439], the IC50 (Wee1 kinase domain) is reported as less than 10 nM and the IC50 [1] is reported as 100 to 1000 nM.
For `CN1[C@@H]2C[C@H]1CN(c1ccc(Nc3ncc4c(n3)N(c3cccc(C(C)(C)O)n3)[C@@H]3CC(C)(C)OC[C@]43C)cc1)C2` (single isomer, unassigned) [Example 441], the IC50 (Wee1 kinase domain) was less than 10 nM and the IC50 [1] was 100 to 1000 nM.
With `CN1CC2(C1)CN(c1ccc(Nc3ncc4c(n3)N(c3cccc(C(C)(C)O)n3)[C@@H]3CC(C)(C)OC[C@]43C)cc1)C2` (single isomer, unassigned) [Example 443] the IC50 (Wee1 kinase domain) was less than 10 nM and the IC50 [1] was 100 to 1000 nM.
In the case of `CN1C[C@@H]2CN(c3ccc(Nc4ncc5c(n4)N(c4cccc(C(C)(C)O)n4)[C@@H]4CC(C)(C)OC[C@]54C)cc3)C[C@@H]2C1` (single isomer, unassigned) [Example 446], the IC50 (Wee1 kinase domain) is reported as less than 10 nM and the IC50 [1] is reported as 100 to 1000 nM.
With `CNCc1cccc(N2c3nc(Nc4ccc(N5CCN(C)CC5)c(C)c4)ncc3[C@@]3(C)COC(C)(C)C[C@@H]23)n1` (single isomer, unassigned) [Example 448] the IC50 (Wee1 kinase domain) was less than 10 nM and the IC50 [1] was 100 to 1000 nM.
In the case of `CNCc1cccc(N2c3nc(Nc4ccc(N5CCN(C)C(=O)C5)cc4)ncc3[C@@]3(C)COC(C)(C)C[C@@H]23)n1` (single isomer, unassigned) [Example 450], the IC50 (Wee1 kinase domain) is reported as less than 10 nM and the IC50 [1] is reported as 100 to 1000 nM.
Work on `CNCc1cccc(N2c3nc(Nc4ccc([C@H]5CCNC5)cc4)ncc3[C@@]3(C)COC(C)(C)C[C@@H]23)n1` (single isomer, unassigned) [Example 452] yielded an IC50 (Wee1 kinase domain) of less than 10 nM and an IC50 [1] of 100 to 1000 nM.
`CNCc1cccc(N2c3nc(Nc4ccc([C@@H]5CCNC5)cc4)ncc3[C@@]3(C)COC(C)(C)C[C@@H]23)n1` (single isomer, unassigned) [Example 454] was tested, and the IC50 (Wee1 kinase domain) was less than 10 nM and the IC50 [1] was 100 to 1000 nM.
Work on `CNCc1cccc(N2c3nc(Nc4ccc(C(C)(C)C(=O)O)cc4)ncc3[C@@]3(C)COC(C)(C)C[C@@H]23)n1` (single isomer, unassigned) [Example 458] yielded an IC50 (Wee1 kinase domain) of less than 10 nM and an IC50 [1] of 1000 to 10000 nM.
`CNCc1cccc(N2c3nc(Nc4ccc(-c5cnn(C)c5)nc4)ncc3[C@@]3(C)COC(C)(C)C[C@@H]23)n1` (single isomer, unassigned) [Example 460] gave an IC50 (Wee1 kinase domain) of less than 10 nM and an IC50 [1] of 100 to 1000 nM.
In the case of `CNCc1cccc(N2c3nc(Nc4ccc(-c5cnn(C)c5)c(C)c4)ncc3[C@@]3(C)COC(C)(C)C[C@@H]23)n1` (single isomer, unassigned) [Example 464], the IC50 (Wee1 kinase domain) is reported as less than 10 nM and the IC50 [1] is reported as 100 to 1000 nM.
`CNCc1cccc(N2c3nc(Nc4ccc(-n5ccnc5)c(F)c4)ncc3[C@@]3(C)COC(C)(C)C[C@@H]23)n1` (single isomer, unassigned) [Example 466] was tested, and the IC50 (Wee1 kinase domain) was less than 10 nM and the IC50 [1] was 1000 to 10000 nM.
With `CNCc1cccc(N2c3nc(Nc4ccc(-n5ccnc5)nc4)ncc3[C@@]3(C)COC(C)(C)C[C@@H]23)n1` (single isomer, unassigned) [Example 468] the IC50 (Wee1 kinase domain) was less than 10 nM and the IC50 [1] was 1000 to 10000 nM.
With `CNCc1cccc(N2c3nc(Nc4cccc(N5CCOCC5)c4)ncc3[C@@]3(C)COC(C)(C)C[C@@H]23)n1` (single isomer, unassigned) [Example 470] the IC50 (Wee1 kinase domain) was less than 10 nM and the IC50 [1] was 100 to 1000 nM.
With `CNCc1cccc(N2c3nc(Nc4cnn(C)c4)ncc3[C@@]3(C)COC(C)(C)C[C@@H]23)n1` (single isomer, unassigned) [Example 472] the IC50 (Wee1 kinase domain) was less than 10 nM and the IC50 [1] was 100 to 1000 nM.
Molecule `CNCc1cccc(N2c3nc(Nc4ccc(N5CCOC[C@H]5C)cc4)ncc3[C@@]3(C)COC(C)(C)C[C@@H]23)n1` (single isomer, unassigned) [Example 473] has an IC50 (Wee1 kinase domain) of less than 10 nM and an IC50 [1] of 100 to 1000 nM.
`CNCc1cccc(N2c3nc(Nc4ccc(N5CCOC[C@@H]5C)cc4)ncc3[C@@]3(C)COC(C)(C)C[C@@H]23)n1` (single isomer, unassigned) [Example 476] gave an IC50 (Wee1 kinase domain) of less than 10 nM and an IC50 [1] of 100 to 1000 nM.
For `CNCc1cccc(N2c3nc(Nc4ccc(N5[C@@H]6COC[C@H]5C6)cc4)ncc3[C@@]3(C)COC(C)(C)C[C@@H]23)n1` (single isomer, unassigned) [Example 479], the IC50 (Wee1 kinase domain) was less than 10 nM and the IC50 [1] was 100 to 1000 nM.
`CNCc1cccc(N2c3nc(Nc4ccc(N5C[C@H]6C[C@@H](C5)O6)cc4)ncc3[C@@]3(C)COC(C)(C)C[C@@H]23)n1` (single isomer, unassigned) [Example 481] showed an IC50 (Wee1 kinase domain) of less than 10 nM and an IC50 [1] of 100 to 1000 nM.
`CN1CCN(c2cncc(Nc3ncc4c(n3)N(c3cccc(N=S(C)(C)=O)n3)[C@@H]3CC(C)(C)OC[C@]43C)c2)CC1` (single isomer, unassigned) [Example 483] gave an IC50 (Wee1 kinase domain) of less than 10 nM and an IC50 [1] of less than 100 nM.

Reference: US20260166039A1 (SCHRÖDINGER, INC., priority 2022, published 2026)
